Reference: PubChem BioAssay (NCI)
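Briefly, cells in 96-well plates were exposed to five compound concentrations for 48 h, and endpoints were estimated by linear interpolation. At the GI50, growth is halved. Definition used: TGI = concentration required for complete inhibition of growth.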

Columns and labels:
Assay in all cases: growth of human tumour cells (NCI), 48 h
[1] = tested on: M14 melanoma
[2] = tested on: MCF7 breast
[3] = tested on: U251 CNS
[4] = tested on: T-47D breast
[5] = tested on: DU-145 prostate
[6] = tested on: SF-539 CNS
[7] = tested on: UACC-62 melanoma
[8] = tested on: HOP-62 NSCLC
[9] = tested on: SNB-75 CNS
[10] = tested on: MDA-MB-435
[11] = tested on: OVCAR-5 ovarian
[12] = tested on: MDA-MB-231 breast
[13] = tested on: A549 NSCLC
[14] = tested on: NCI-H226 lung
[15] = tested on: SK-MEL-2 melanoma
[16] = tested on: MALME-3M melanoma
[17] = tested on: MOLT-4 leukemia
[18] = tested on: HCC-2998 colon
[19] = tested on: SK-OV-3 ovarian
[20] = tested on: HT29 colon
[21] = tested on: UACC-257 melanoma
[22] = tested on: HCT-116 colon
[23] = tested on: HL-60(TB) leukemia
[24] = tested on: KM12 colon
[25] = tested on: SK-MEL-28 melanoma
[26] = tested on: OVCAR-8 ovarian
[27] = tested on: HS 578T breast
[28] = tested on: SF-295 CNS
[29] = tested on: HCT-15 colon
[30] = tested on: K-562 leukemia
[31] = tested on: NCI-H460 lung
[32] = tested on: OVCAR-3 ovarian
[33] = tested on: SW-620 colon
[34] = tested on: NCI/ADR-RES ovarian
[35] = tested on: NCI-H23 lung
[36] = tested on: SN12C renal
[37] = tested on: CCRF-CEM leukemia
[38] = tested on: NCI-H522 lung
[39] = tested on: RPMI-8226 leukemia
[40] = tested on: ACHN renal
[41] = tested on: 786-0 renal
[42] = tested on: SNB-19 CNS
[43] = tested on: UO-31 renal
[44] = tested on: COLO 205 colon
[45] = tested on: LOX IMVI melanoma
[46] = tested on: CAKI-1 renal
[47] = tested on: BT-549 breast
[48] = tested on: IGROV1 ovarian
[49] = tested on: SR leukemia
[50] = tested on: SF-268 CNS
[51] = tested on: EKVX NSCLC
[52] = tested on: SK-MEL-5 melanoma
[53] = tested on: TK-10 renal
[54] = tested on: OVCAR-4 ovarian
[55] = tested on: A498 renal
[56] = tested on: HOP-92 NSCLC
[57] = tested on: RXF 393 renal
[58] = tested on: PC-3 prostate

Nc1cc2[nH]c(=O)c3cc(Cl)ccc3c2cc1Cl
TGI [1]: > 100 µM
TGI [2]: 13.8 µM
TGI [3]: 26.1 µM
TGI [4]: > 100 µM
TGI [5]: 39.1 µM
TGI [6]: 25.8 µM
TGI [7]: > 100 µM
TGI [8]: 63.1 µM
TGI [9]: 61.8 µM
TGI [10]: 52.1 µM
TGI [11]: > 100 µM
TGI [12]: 68.6 µM
TGI [13]: 44.7 µM
TGI [14]: 28.1 µM
TGI [15]: > 100 µM
TGI [16]: 44.6 µM
TGI [17]: > 100 µM
TGI [18]: > 100 µM
TGI [19]: 15.8 µM
TGI [20]: > 100 µM
TGI [21]: 53.4 µM
TGI [22]: 68.8 µM
TGI [23]: > 100 µM
TGI [24]: > 100 µM
TGI [25]: > 100 µM
TGI [26]: 13.5 µM
TGI [27]: > 100 µM
TGI [28]: 44.2 µM
TGI [29]: > 100 µM
TGI [30]: > 100 µM
TGI [31]: 18.8 µM
TGI [32]: 29.4 µM
TGI [33]: > 100 µM
TGI [34]: 86.1 µM
TGI [35]: 72.5 µM
TGI [36]: > 100 µM
TGI [37]: > 100 µM
TGI [38]: 33 µM
TGI [39]: > 100 µM
TGI [40]: 22.4 µM
TGI [41]: > 100 µM
TGI [42]: 37.2 µM
TGI [43]: 30.5 µM
TGI [44]: > 100 µM
TGI [45]: 53.6 µM
TGI [46]: 40.8 µM
TGI [47]: > 100 µM
TGI [48]: 23.5 µM
TGI [49]: > 100 µM
TGI [50]: 45.4 µM
TGI [51]: > 100 µM
TGI [52]: 27 µM
TGI [53]: 33.7 µM
TGI [54]: > 100 µM

N=C(N)c1ccc(-c2ccc(-c3ccc(Cl)cc3)s2)s1
GI50 [5]: 1.62 µM
TGI [5]: 2.98 µM
GI50 [55]: 13 µM
TGI [55]: 45.3 µM
GI50 [19]: 1.7 µM
TGI [19]: 3.15 µM
GI50 [21]: 2.78 µM
TGI [21]: 4.9 µM
GI50 [49]: 0.322 µM
TGI [49]: > 100 µM
GI50 [52]: 3.16 µM
TGI [52]: 8.66 µM

Cc1cc(N2CCOCC2)nc(N(CCNc2ccnc3cc(Cl)ccc23)Cc2cccs2)n1
GI50 [1]: 1.79 µM
TGI [1]: 3.41 µM
GI50 [2]: 1.97 µM
TGI [2]: 4.68 µM
GI50 [3]: 1.88 µM
TGI [3]: 3.64 µM
GI50 [4]: 1.84 µM
TGI [4]: 4.4 µM
GI50 [6]: 1.81 µM
TGI [6]: 3.32 µM
GI50 [7]: 1.9 µM
TGI [7]: 3.65 µM
GI50 [8]: 2.44 µM
TGI [8]: 6.52 µM
GI50 [9]: 1.98 µM
TGI [9]: 5.25 µM
GI50 [10]: 1.76 µM
TGI [10]: 3.32 µM
GI50 [11]: 2.19 µM
TGI [11]: 4.73 µM
GI50 [12]: 1.97 µM
TGI [12]: 3.64 µM
GI50 [13]: 3.08 µM
TGI [13]: 12 µM
GI50 [15]: 1.99 µM
TGI [15]: 4.08 µM
GI50 [16]: 2.06 µM
TGI [16]: 3.72 µM
GI50 [17]: 2.58 µM
TGI [17]: 5.93 µM
GI50 [56]: 0.22 µM
TGI [56]: 1.93 µM
GI50 [18]: 2.39 µM
TGI [18]: 5.11 µM
GI50 [57]: 1.74 µM
TGI [57]: 3.47 µM
GI50 [21]: 1.88 µM
TGI [21]: 3.6 µM
GI50 [23]: 1.95 µM
TGI [23]: 3.83 µM
GI50 [24]: 2.23 µM
TGI [24]: 5.34 µM
GI50 [25]: 1.76 µM
TGI [25]: 3.7 µM
GI50 [26]: 1.96 µM
TGI [26]: 4.06 µM
GI50 [27]: 2.24 µM
TGI [27]: 5.45 µM
GI50 [28]: 1.58 µM
TGI [28]: 3.13 µM
GI50 [29]: 1.78 µM
TGI [29]: 4.05 µM
GI50 [30]: 1.67 µM
TGI [30]: 3.98 µM
GI50 [33]: 1.92 µM
TGI [33]: 4.18 µM
GI50 [34]: 3.45 µM
TGI [34]: > 100 µM
GI50 [35]: 3 µM
TGI [35]: > 100 µM
GI50 [36]: 1.9 µM
TGI [36]: 4.01 µM
GI50 [37]: 2.02 µM
TGI [37]: 6.1 µM
GI50 [38]: 1.72 µM
TGI [38]: 3.72 µM
GI50 [39]: 1.87 µM
TGI [39]: 4.04 µM
GI50 [40]: 1.91 µM
TGI [40]: 3.79 µM
GI50 [41]: 1.69 µM
TGI [41]: 3.12 µM
GI50 [42]: 4.24 µM
TGI [42]: 76.2 µM
GI50 [43]: 1.39 µM
TGI [43]: 2.75 µM
GI50 [44]: 1.62 µM
TGI [44]: 3.25 µM
GI50 [45]: 1.72 µM
TGI [45]: 3.18 µM
GI50 [48]: 1.96 µM
TGI [48]: 4.97 µM
GI50 [49]: 1.47 µM
TGI [49]: 3.94 µM
GI50 [50]: 3.27 µM
TGI [50]: 10.6 µM
GI50 [51]: 2.79 µM
TGI [51]: 44 µM
GI50 [52]: 1.59 µM
TGI [52]: 2.96 µM
GI50 [53]: 2.35 µM
TGI [53]: 6.57 µM
GI50 [54]: 2.37 µM
TGI [54]: 7.59 µM
GI50 [58]: 1.8 µM
TGI [58]: 4.84 µM

CC(C)OC(=S)[S-].[Au+].c1ccc([PH+](c2ccccc2)c2ccccc2)cc1
GI50 [1]: 0.986 µM
TGI [1]: 2.32 µM
GI50 [2]: 0.467 µM
TGI [2]: 2.66 µM
GI50 [3]: 0.419 µM
TGI [3]: 1.56 µM
GI50 [6]: 1.24 µM
TGI [6]: 2.49 µM
GI50 [56]: 1.07 µM
TGI [56]: 2.25 µM
GI50 [57]: 0.387 µM
TGI [57]: 1.48 µM
GI50 [23]: 0.264 µM
TGI [23]: 1.36 µM
GI50 [32]: 0.316 µM
TGI [32]: 1.05 µM
GI50 [38]: 0.176 µM
TGI [38]: 0.409 µM
GI50 [39]: 0.747 µM
TGI [39]: 4.01 µM
GI50 [45]: 0.478 µM
TGI [45]: 2.07 µM

Cc1cc2c(C#N)n3c(c2cc1C)C(=O)C(c1ccccc1)Oc1ccccc1-3 (stereo not drawn)
GI50 [8]: 3.71 µM
TGI [8]: > 100 µM
GI50 [9]: 2.25 µM
TGI [9]: 9.58 µM
GI50 [56]: 1.62 µM
TGI [56]: 5.77 µM
GI50 [18]: > 100 µM
TGI [18]: > 100 µM
GI50 [19]: 5.55 µM
TGI [19]: > 100 µM
GI50 [57]: 2.71 µM
TGI [57]: 39.6 µM
GI50 [27]: 4.29 µM
TGI [27]: > 100 µM
GI50 [28]: 3.83 µM
TGI [28]: > 100 µM
GI50 [41]: 3.91 µM
TGI [41]: > 100 µM
GI50 [42]: 2.97 µM
TGI [42]: > 100 µM
GI50 [50]: 3.73 µM
TGI [50]: > 100 µM
GI50 [53]: 3.33 µM
TGI [53]: > 100 µM
